Measurements taken from publication PMC4454677, “Prolyl Oligopeptidase from the Blood Fluke Schistosoma mansoni: From Functional Analysis to Anti-schistosomal Inhibitors” (PLoS Neglected Tropical Diseases, 2015).
Entries after “also recorded” stand apart in the source; their conditions may differ. Where a name gives a salt, the structure may show the parent alone. Read-outs that look alike come from different tables or passages of the source. Numbered stars: 1 amine (or outer) side, 2 acyl side, 3 side chain; on linkers, the order of the positions; unused ones are H or OH. Square brackets hold non-standard residues; d marks the D form. Peptide text beside a SMILES is read from it. * marks the point of attachment. Sta = CC(C)C[C@H](N)[C@@H](O)CC(=O)O; Isovaleryl = CC(C)CC(=O)*; Cbz = O=C(OCc1ccccc1)*; CO = O=C([*:1])[*:2]; CH2Cl = ClC*

Experiments:
[1] = molecular target: recombinant SmPOP (Schistosoma mansoni, UniProt A0A5K4EZK1); experiment: biochemical; type: biochemical
[2] = tested on: newly transformed schistosomula (NTS); experiment: Parasite assay and phenotype scoring with NTS in culture; type: cell-based, Schistosoma mansoni; details: inhibitors at 10 μM and 1 μM, up to 4 days, grade I most severe
Procedure: NTS (200–300 parasites) were incubated in 200 μL of Basch Medium 169 and supplements, as described above. Inhibitors were added at final concentrations of 1 or 10 μM (0.5% DMSO final) and the incubations continued for 4 days. Grading of phenotypic responses arising as a function of time and concentration was modified after Jilkova et al.: Grade I, dead NTS by 2 days of culture at 10 μM and dying/dead NTS by 3 days at 1 μM. Grade II, dead NTS by 3 days at 10 μM and round/dark/dying by 3 days at 1 μM; Grade III, round/dark by 3 days at 1 and 10 μM concentrations (S1 Fig). ‘Dead’ was adjudicated as the loss of normal shape and the lack of movement often accompanied by obvious internal disruptions. ‘Dying’ was similar to death except that movement was detectable. Otherwise, the terms ‘round/dark’ were used to indicate less severe but obvious changes in the parasites relative to DMSO controls.

[3] = molecular target: T1, human POP (HsPOP) (Homo sapiens, UniProt P48147); experiment: biochemical
T1 sequence (P48147 1-710): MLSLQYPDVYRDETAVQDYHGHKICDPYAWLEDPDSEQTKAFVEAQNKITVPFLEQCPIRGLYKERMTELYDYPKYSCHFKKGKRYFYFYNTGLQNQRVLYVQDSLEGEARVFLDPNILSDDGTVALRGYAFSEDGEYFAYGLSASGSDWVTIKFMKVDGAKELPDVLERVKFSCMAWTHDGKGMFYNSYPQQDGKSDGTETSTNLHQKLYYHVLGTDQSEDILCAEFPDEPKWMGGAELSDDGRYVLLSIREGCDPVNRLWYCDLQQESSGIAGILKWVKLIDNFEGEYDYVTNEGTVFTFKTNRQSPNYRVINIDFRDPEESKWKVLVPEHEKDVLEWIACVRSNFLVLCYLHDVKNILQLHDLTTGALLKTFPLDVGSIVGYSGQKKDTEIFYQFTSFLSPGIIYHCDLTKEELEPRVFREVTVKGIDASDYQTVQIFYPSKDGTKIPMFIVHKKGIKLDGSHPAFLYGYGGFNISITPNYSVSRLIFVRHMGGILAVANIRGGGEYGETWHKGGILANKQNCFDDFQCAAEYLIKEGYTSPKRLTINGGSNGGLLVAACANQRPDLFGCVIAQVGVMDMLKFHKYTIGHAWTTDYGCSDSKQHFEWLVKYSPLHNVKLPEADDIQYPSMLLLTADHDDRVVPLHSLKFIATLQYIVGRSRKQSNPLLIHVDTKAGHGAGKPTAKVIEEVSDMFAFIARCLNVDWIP

[4] = tested on: adult schistosomes (cleavage of angiotensin I and bradykinin); experiment: Hydrolysis of peptide hormones by cultured schistosomes (MALDI-TOF); type: cell-based, Schistosoma mansoni; details: live adults in culture; 16 h; mass spectrometry
Procedure: Five adult schistosome pairs were placed into clear, 24-well, flat-bottom plates (Costar) containing 500 μL Basch Medium […] [28], supplemented with 2.5% FBS, 100 units/mL penicillin and 100 μg/mL streptomycin. Human angiotensin I or bradykinin in 5 μL water was added to a final concentration of 100 μM and the incubation continued for 16 h at 37°C under a 5% CO2 atmosphere. In control experiments, the peptides were cultivated in the same system in the absence of schistosomes. After incubation, the samples were ZipTiped and the resulting fragments were analyzed using MALDI-TOF performed on an UltrafleXtreme (Bruker Daltonik) operated in reflectron mode with an acceleration voltage of 25 kV and a pulsed ion extraction of 120 ns. Desorption and ionization were achieved using a Smartbeam II laser. α-Cyano-4-hydroxycinnamic acid was used as a matrix. The data were acquired from m/z 220 to 3700 and analyzed with the FlexAnalysis 3.3 software (Bruker Daltonik). The mass spectra were externally calibrated using a Peptide Calibration Standard I (Bruker Daltonik) and averaged from 3000 laser shots.

[5] = tested on: SmPOP activity of live NTS and adult schistosomes; experiment: Fluorescence SmPOP activity assay with cultured schistosomes; type: cell-based, Schistosoma mansoni; details: 1 μM inhibitor; NTS or adult worms in culture
Procedure: Adult worms (3 pairs) or approximately 150 NTS were incubated at 37°C and 5% CO2 for 2 days in 200 μL of Basch Medium 169 containing 5% FBS, 100 units/mL of penicillin and 100 μg/mL using black clear bottomed 96-well microplates (Costar). After incubation, half of the medium (100 μl) was transferred to an empty well leaving the parasites in the remaining half. Then SmPOP activity was measured in both wells upon the addition of 20 μL of Z-Gly-Pro-AMC (prepared as a 250 μM stock in Basch Medium 169) and in the presence or absence of 1 μM of the POP inhibitor, Z-Ala-Pro-CMK. Controls contained medium alone.

For `Cl.NCCc1ccc(S(=O)(=O)F)cc1` [Pefabloc SC], the “Inhibition of rSmPOP activity (in words)” value [1] was “Partial inhibition; also recorded: only weakly” and the “Inhibition (%)” value ([1]; 1000 µM) was 12.0±3.1%.

`O=C[C@@H]1CCCN1C(=O)[C@@H]1CCCN1C(=O)OCc1ccccc1` [Z-Pro-Pro-CHO, benzyloxycarbonyl-L-prolyl-L-prolinal] (Cbz-Pro-Pro-aldehyde) was tested, and the “Inhibition of rSmPOP activity (in words)” value [1] was “completely inhibited”, the IC50 ([1]; read-out: IC50 (μM) SmPOP) was 0.16 ± 0.03 µM and the inhibition at 1 µM ([1]; read-out: Inhibition (%)) was 100 ± 1%. The “Severity of phenotype against parasite, Grade” value (from here on “Severity of phenotype”) [2] was “no effect”.

For `Cc1ccc(S(=O)(=O)N[C@@H](Cc2ccccc2)C(=O)CCl)cc1` [TPCK, N-p-Tosyl-L-phenylalanine chloromethyl ketone], the “Inhibition of rSmPOP activity (in words)” value [1] was “Partial inhibition” and the “Inhibition (%)” value ([1]; 1 µM) was 67.2±6.2%.

With `CC(=O)N[C@@H](CC(C)C)C(=O)N[C@@H](CC(C)C)C(=O)N[C@H](C=O)CCCNC(=N)N` [Leupeptin] the inhibition at 20 µM [1] was 2.3 ± 1.2%.

`NCCCC[C@H](NC(=O)OCc1ccccc1)C(=O)N1CCC[C@H]1C=O` [Z-Lys-Pro-CHO] (Cbz-Lys-Pro-aldehyde) was tested, and the IC50 ([1]; read-out: IC50 (μM) SmPOP) was 3 ± 0.6 µM, the “Severity of phenotype” value [2] was “I” and the IC50 ([3]; read-out: IC50 (μM) HsPOP) was 7.2 ± 0.6 µM.

`C[C@H](NC(=O)OCc1ccccc1)C(=O)N1CCC[C@H]1C=O` [Z-Ala-Pro-CHO] (Cbz-Ala-Pro-aldehyde) showed an IC50 ([1]; read-out: IC50 (μM) SmPOP) of 3.1 ± 0.2 µM and an IC50 ([3]; read-out: IC50 (μM) HsPOP) of 6.1 ± 0.3 µM.

`N=C(N)NCCC[C@H](NC(=O)OCc1ccccc1)C(=O)N1CCC[C@H]1C(=O)CCl` [Z-Arg-Pro-CMK] (Cbz-Arg-Pro-CH2Cl) gave an IC50 ([1]; read-out: IC50 (μM) SmPOP) of 0.0029 ± 0.0001 µM and an IC50 ([3]; read-out: IC50 (μM) HsPOP) of 0.0048 ± 0.0006 µM.

In the case of `N=C(N)c1ccccc1` [Benzamidine], the “Inhibition of rSmPOP activity (in words)” value [1] is reported as “only weakly” and the inhibition at 10 µM [1] is reported as 3.7 ± 1.1%.

For `CC(C)c1ccc(C(=O)c2cccs2)c(SCCCCCCCCN(C)C)n1` [Y-29794 oxalate, 2-[[8-(Dimethylamino)octyl]thio]-6-(1-methylethyl)-3-pyridinyl-2-thienylmethanone oxalate], the IC50 ([1]; read-out: IC50 (μM) SmPOP) was 8.6 ± 0.4 µM and the IC50 ([3]; HsPOP, Z-Gly-Pro-AMC, pH 8.0, mean ± S.D., n=3, read-out: IC50 (μM) HsPOP) was 0.49 ± 0.03 µM.

In the case of `O=C(O)CN(CCN(CC(=O)O)CC(=O)O)CC(=O)O` [EDTA], the “Inhibition (%)” value ([1]; 1000 µM) is reported as 3.8±2.3%.

Molecule `CC(C)C[C@H](NC(=O)[C@@H](O)[C@H](N)Cc1ccccc1)C(=O)O` [Bestatin] has an inhibition at 1 µM ([1]; read-out: Inhibition (%)) of 2.3 ± 2.1%.

Molecule `O=C[C@@H]1CCCN1C(=O)CNC(=O)OCc1ccccc1` [Z-Gly-Pro-CHO] (Cbz-Gly-Pro-aldehyde) has an IC50 ([1]; read-out: IC50 (μM) SmPOP) of 6.1 ± 0.4 µM.

`CC(C)CC(=O)N[C@H](C(=O)N[C@H](C(=O)N[C@@H](CC(C)C)[C@@H](O)CC(=O)N[C@@H](C)C(=O)N[C@@H](CC(C)C)[C@@H](O)CC(=O)O)C(C)C)C(C)C` [Pepstatin A] (Isovaleryl-VV[Sta]A[Sta]-OH) showed an inhibition at 1 µM [1] of 7.3 ± 3.5%.

`O=C[C@@H]1CCCN1C(=O)[C@H](Cc1ccc(O)cc1)NC(=O)OCc1ccccc1` [Z-Tyr-Pro-CHO] (Cbz-Tyr-Pro-aldehyde) gave an IC50 ([1]; read-out: IC50 (μM) SmPOP) of 4.4 ± 0.4 µM and an IC50 ([3]; read-out: IC50 (μM) HsPOP) of 11.4 ± 0.7 µM.

`N=C(N)NCCC[C@H](NC(=O)OCc1ccccc1)C(=O)N1CCC[C@H]1C=O` [Z-Arg-Pro-CHO] (Cbz-Arg-Pro-aldehyde) showed an IC50 ([1]; read-out: IC50 (μM) SmPOP) of 1.3 ± 0.3 µM and an IC50 ([3]; read-out: IC50 (μM) HsPOP) of 2.4 ± 0.2 µM.

`CC(C)[C@H](NC(=O)[C@H](CCCNC(=N)N)NC(=O)N[C@@H](Cc1ccccc1)C(=O)O)C(=O)N[C@H](C=O)CCCNC(=N)N` [Antipain] ({Phe-CO}-Arg-Val-Arg-aldehyde) was tested, and the inhibition at 20 µM [1] was 32.4 ± 1.4%.

For `O=C(O)[C@@H]1CCCN1C(=O)OCc1ccccc1` [Z-Pro-OH], the “Inhibition (%)” value ([1]; 100 µM) was 41.1±1.8%.

In the case of `Cc1ccc(S(=O)(=O)N[C@@H](CCCCN)C(=O)CCl)cc1` [TLCK, Nα-Tosyl-L-lysine chloromethyl ketone], the “Inhibition of rSmPOP activity (in words)” value [1] is reported as “Partial inhibition” and the “Inhibition (%)” value ([1]; 1 µM) is reported as 38.3±1.2%.

For `O=C([C@@H]1C[C@@H](O)CN1C(=O)CCCOc1ccccc1/C=C/c1ccccc1)N1CCSC1` [SUAM 14746], the IC50 ([1]; read-out: IC50 SmPOP) was 0.092 µM, the “Severity of phenotype” value [2] was “no effect” and the IC50 ([3]; read-out: IC50 human POP) was 0.083 µM.

In the case of `CC(C)C[C@H](NC(=O)[C@H]1O[C@@H]1C(=O)O)C(=O)NCCCCN=C(N)N` (relative stereo) [E64, trans-Epoxysuccinyl-L-leucylamido(4-guanidino)butane], the “Inhibition (%)” value ([1]; 10 µM) is reported as 6.5±6.1%.

In the case of `O=S(=O)(F)Cc1ccccc1` [PMSF, phenylmethylsulfonyl fluoride], the “Inhibition of rSmPOP activity (in words)” value [1] is reported as “Partial inhibition” and the “Inhibition (%)” value ([1]; 1000 µM) is reported as 47.6±1.6%.

With `C[C@H](NC(=O)OCc1ccccc1)C(=O)N1CCC[C@H]1C(=O)CCl` [Z-Ala-Pro-CMK, Z-Ala-Pro-chloromethyl ketone] (Cbz-Ala-Pro-CH2Cl) the “Fragmentation of angiotensin I and bradykinin by adult parasites in the presence of inhibitor” value [4] was “abolished”, the “Inhibition of rSmPOP activity (in words)” value [1] was “completely inhibited” and the inhibition at 1 µM [1] was 100 ± 3%. For the same molecule, the IC50 ([1]; read-out: IC50 (μM) SmPOP) was 0.0032 ± 0.0004 µM, the IC50 ([3]; read-out: IC50 (μM) HsPOP) was 0.0168 ± 0.0046 µM and the “Cleavage of Z-Gly-Pro-AMC by live NTS or adult schistosomes in the presence of inhibitor” value [5] was “abolished”.

`O=c1oc(Cl)c(Cl)c2ccccc12` [3,4-dichloroisocoumarin] was tested, and the “Inhibition of rSmPOP activity (in words)” value [1] was “Partial inhibition” and the inhibition at 100 µM [1] was 77.3 ± 0.6%.

For `O=C(O)[C@@H]1CCCN1C(=O)[C@@H]1CCCN1C(=O)OCc1ccccc1` [Z-Pro-Pro-OH] (Cbz-Pro-Pro-OH), the “Inhibition (%)” value ([1]; 100 µM) was 37.6±2.1%.

B1: STI: soybean trypsin inhibitor, protein inhibitor of serine peptidases (protein, UniProt P01070 25-205, looked up)
Trypsin inhibitor A: DFVLDNEGNPLENGGTYYILSDITAFGGIRAAPTGNERCPLTVVQSRNELDKGIGTIISSPYRIRFIAEGHPLSLKFDSFAVIMLCVGIPTEWSVVEDLPEGPAVKIGENKDAMDGWFRLERVSDDEFNNYKLVFCPQQAEDDKCGDIGISIDHDDGTRRLVVSKNKPLVVQFQKLDKESL
In the case of B1, the “Inhibition of rSmPOP activity (in words)” value [1] is reported as “neither affected” and the “Inhibition (%)” value ([1]; 10 µM) is reported as 12.3±3.2%.
